Laboratory results published in US20160115200A1, “New Use for JNK Inhibitor Molecules for Treatment of Various Diseases” (XIGEN INFLAMMATION LTD., priority 2013, published 2016).
Square brackets hold non-standard residues; d marks the D form. Ends that are not written are not given here.

Key:
[1] = test system: IMQ-induced psoriasis in BALB/c mice; test: Imiquimod-induced psoriasis in mice, ear histopathology; format: in vivo, mouse; settings: Prednisolone 10 mg/kg PO daily; for inflammation of the ear (average histopathology grade) vs vehicle-IMQ group: statistically significant
Procedure: Female BALB/cAnNCrl mice (Charles River, age 8 to 10 weeks at study start) have been assigned to the following groups (treatment schedule):
In this experiment, two positive controls have been utilized. Firstly, Prednisolone at 10 mg/kg (vehicle: 1% Hydroxyethylcellulose, 0.25% Polysorbate 80, and 0.05% Antifoam in purified water) has been dosed daily and orally (group “Prednisolone”). Secondly, Dexamethasone has been administered at 0.5 mg/kg (vehicle: sterile 0.9% NaCl) on days 1, 4 and 7 via intravenous route.
On day 8, animals have been sacrificed and the tissue (ear) has been fixed in 10% neutral buffered formalin. For histopathology hematoxylin-and-eosin-stained sections (cross cut) have been prepared and microscopic evaluation on the collected tissues from all animals has been performed. Methods and end-points for histopathology were similarly described in the van der Fits (2009) paper in that inflammation, epidermal hyperplasia, epidermal hyperkeratosis (rather than parakeratosis) were observed and recorded for severity grade, whereby the respective methodology from Van der Fits et al. (The Journal of Immunology 2009, 182, P. 5836-5845) is hereby incorporated by reference. Histopathology grading scores were excluded for either skin or ear in animals with secondary inflammatory processes (full thickness epidermal ulcers). Scores were averaged by group and standard deviation and statistical significance were calculated. […] Formalin-fixed, paraffin embedded skin from the dorsal surface of the mouse (BALB/c) was stained with hematoxylin and eosin (H&E) stain and assessed microscopically. An important difference from the above reference and to describe in more detail the observations of the present study: Hyperkeratosis can be defined specifically as orthokeratotic (no retained nuclei) or parakeratotic (retained nuclei). Either can occur normally in various anatomical locations and depending on species; however, both conditions are well defined in particular disease states. The van der Fits paper describes their Imiquimod (IMQ)-induced psoriasis model as causing parakeratotic hyperkeratosis similar to what is seen in the human condition, and that was a defined end-point for this study. However, the Danilenko et al. (Veterinary Pathology 2008 45:563) has shown that many rodent psoriasis models have orthokeratotic hyperkeratosis. […] The more general term ‘hyperkeratosis’ was used for grading end-points and describe in the text what type was seen (primarily orthokeratotic).
1=MI=minimal 2=SL=slight 3=M0=moderate 4=MA=marked 5=SE=severe

[2] = test system: endotoxins-induced uveitis albino rat model; test: Endotoxins-induced uveitis (EIU), single intravenous injection, clinical scoring 24 h after LPS; format: in vivo; set-up: key to EIU clinical score, median: clinical score per eye, 0 to 4 scale; settings: 20 μg/eye sub-conjunctival, 24 hours after LPS
Procedure: The aim of this study was to determine the effects of single intravenous injections of SEQ ID NO: 172 (0.015, 0.18, and 1.80 mg/kg) on the inflammatory response in an endotoxins-induced uveitis albino rat model and to compare these affects to those obtained with prior art JNK inhibitor of SEQ ID NO: 197 (2 mg/kg). As a further control served phosphate sodic dexamethasone.
Sixty (60) male Lewis rats were randomly divided into six (6) groups of ten (10) animals each. EIU was induced by footpad injection of lipopolysaccharide (LPS, 1 mg/kg). NaCl (0.9%), SEQ ID NO: 197 at 2 mg/kg and SEQ ID NO: 172 at three concentrations (1.80 mg/kg, 0.18 mg/kg and 0.015 mg/kg) were administered by intravenous injection. Phosphate sodic dexamethasone (20 μg/eye) was administered by sub-conjunctival injection in both eyes. 24 hours after LPS injection, inflammatory response was evaluated by clinical scoring.
The intensity of clinical ocular inflammation was scored on a scale from 0 to 4 for each eye: […]

[3] = test system: established type II collagen arthritis in rats; settings: Dex 0.05 mg/kg IV QD
Hela cells = test: Internalization of TAT derived transporters, 24 hours, fluorescence of cell extracts (FIG. 6); format: cell-based; settings: Y in position 2
Procedure: The transporter sequences analyzed correspond to SEQ ID NOs: 52-94 plus SEQ ID NOs: 45, 47, 46, 43 and 99 (FIG. 6a) and SEQ ID NOs: 100-147 (FIG. 6b). […] Hela cells were incubated 24 hours in 96 well plate with […] of the respective transporters. The cells were then washed twice with an acidic buffer (0.2M Glycin, 0.15M NaCl, pH 3.0) and twice with PBS. Cells were broken by the addition of RIPA lysis buffer. The relative amount of internalized peptide was then determined by reading the fluorescence intensity (Fusion Alpha plate reader; PerkinElmer) of each extract followed by background subtraction.
Hela cells were incubated 24 hours in 96 well plate with […] of the r3-L-TAT-derived transporters. The cells were then washed twice with an acidic buffer (0.2M Glycin, 0.15M NaCl, pH 3.0) and twice with PBS. Cells were broken by the addition of RIPA lysis buffer. The relative amount of internalized peptide was then determined by reading the fluorescence intensity (Fusion Alpha plate reader; PerkinElmer) of each extract followed by background subtraction

## C[C@]12C=CC(=O)C=C1CC[C@@H]1[C@@H]2[C@@H](O)C[C@@]2(C)[C@H]1CC[C@]2(O)C(=O)CO [Prednisolone, reference compound]
[1]
  epidermal hyperkeratosis of the ear, average grades vs vehicle-IMQ group: minimally decreased average grades
  inflammation of the ear (average histopathology grade) vs vehicle-IMQ group: decreased inflammation of the ear
[1]; not statistically significant
  epidermal hyperplasia of the ear vs vehicle-IMQ group: below that of the vehicle-IMQ dose group
[1]; listed as prednisolone
  inflammation of the ear (average histopathology grade) vs vehicle-IMQ group: significant differences from the vehicle control group

## C[C@@H]1C[C@H]2[C@@H]3CCC4=CC(=O)C=C[C@]4(C)[C@@]3(F)[C@@H](O)C[C@]2(C)[C@@]1(O)C(=O)CO [dexamethasone, reference compound]
[2]
  EIU clinical score, mean±SEM: 0.8±0.2
  EIU clinical score, median: 0.5
  reduction of clinical scores vs vehicle: 79%
[3]
  spleen weights relative to body weight vs disease controls: significantly (p<0.05 by ANOVA) reduced
  thymus weights relative to body weight vs disease controls: significantly (p<0.05 by ANOVA) reduced

## rYKRrQRRr ([dR]YKR[dR]QRR[dR]) [SEQ ID NO: 142]
Hela cells
  transporter activity and kinetics of transport (position scan): highest transporter activity
